Measured values: the supplement of paper PMC5579334

Key:
[1] = system: YST-1; assay: relative IC50 (inflection point of fitted dose-response curve, CellTiter-Glo viability, 72 h; top asymptote may be below 50% inhibition); higher = less potent
Method in brief: (§1)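 After seeding 750–1000 cells per well of MPNST cell lines or primary human Schwann cells into 384-well plates preprinted with each compound at five concentrations in 10-fold steps, plates were kept 72 h at 37 °C, 5% CO2. Viability was read as CellTiter-Glo ATP luminescence relative to vehicle and positive-control wells, with duplicates averaged where present. The data were fitted with four-parameter logistic models. Drug sensitivity score and relative IC50, censored at the top concentration, derive from the fits, and percent inhibition refers to the top concentration.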

[2] = system: HS-PSS; assay: as above
Method in brief: as §1

[3] = system: HS-Sch-2; assay: as above
Method in brief: as §1

[4] = system: HS-PSS; assay: relative IC50 (inflection point of fitted dose-response curve, CellTox-Green cytotoxicity, 72 h; top asymptote may be below 50%); higher = less potent
Method in brief: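 For 72 h at 37 °C, MPNST cell lines and primary human Schwann cells were exposed in 384-well plates to five 10-fold compound dilutions. CellTox-Green, added before seeding at a final 1:1000 dilution, gave fluorescence from DNA released by disrupted cells. Signals were scaled to vehicle and positive-control wells, cultures failing plate quality control were left out, and four-parameter logistic fits were applied. Relative IC50 and drug sensitivity score were derived from the fits, with IC50 censored at the top concentration.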

SMILES | relative IC50 [1] | relative IC50 [2] | relative IC50 [3] | relative IC50 [4]
CC[C@@]1(O)C(=O)OCc2c1cc1n(c2=O)Cc2cc3ccccc3nc2-1 [Camptothecin] | 0.0401 µM | 0.199 µM | 0.0634 µM | 0.358 µM
C[C@@H]1C[C@H]2O[C@@H]2/C=C\C=C\C(=O)Cc2c(Cl)c(O)cc(O)c2C(=O)O1 [Radicicol] | 0.81 µM | 0.545 µM | 0.353 µM | 1.14 µM
NC(=S)N/N=C/c1ncccc1N [Triapine] | 3.88 µM | 2.25 µM | 1.69 µM | 3.26 µM
NCC(=O)Nc1ccc(-n2nc(C(F)(F)F)cc2-c2ccc3c(ccc4ccccc43)c2)cc1 | 7.97 µM | 9.14 µM | 6 µM | 5.04 µM
NC(=O)N1CCC(CC(=O)N2CCC([C@H]3c4ncc(Br)cc4CCc4cc(Cl)cc(Br)c43)CC2)CC1 [Lonafarnib] | 1.37 µM | 2.15 µM | 1.66 µM | > 10 µM
Cn1cc(-c2ccc3nnc(Sc4ccc5ncccc5c4)n3n2)cn1 [SGX-523] | > 5 µM | > 5 µM | > 5 µM | > 5 µM
Nc1cc(F)ccc1NC(=O)/C=C/c1cnn(C/C=C/c2ccccc2)c1 [RGFP966] | 1.57 µM | 0.378 µM | 1.75 µM | > 10 µM
Oc1ncc(N(CCCl)CCCl)c(O)n1 [Uramustine] | > 10 µM | > 10 µM | > 10 µM | > 10 µM
Cn1cc(C2=Nc3cc(NC(=O)C(N)C4CCCCC4)cc4c3C2=CNNC4=O)cn1 (stereo unspecified) | 0.163 µM | 0.0771 µM | 0.108 µM | > 10 µM
N[C@@H](Cc1ccc(N(CCCl)CCCl)cc1)C(=O)O [Melphalan] | > 12.5 µM | > 12.5 µM | > 12.5 µM | > 12.5 µM
CN(C)C(=O)c1cc2cnc(Nc3ccc(N4CCNCC4)cn3)nc2n1C1CCCC1 [Ribociclib] | 1.53 µM | 2.03 µM | 1.61 µM | > 10 µM
CN(C)c1cc2c(cc1Sc1nc3c(N)nccc3n1CCNCC(C)(C)C)OCO2 [CUDC-305] | 0.516 µM | 0.51 µM | 0.219 µM | 0.384 µM
CC(=O)O[C@]1(C(C)=O)CC[C@H]2[C@@H]3C=C(C)C4=CC(=O)CC[C@]4(C)[C@H]3CC[C@@]21C [Megestrol acetate] | > 10 µM | > 10 µM | > 10 µM | > 10 µM
COc1cc(Nc2ncc(F)c(Nc3ccc4c(n3)N(COP(=O)(O)O)C(=O)C(C)(C)O4)n2)cc(OC)c1OC [Fostamatinib] | 0.685 µM | 0.514 µM | 0.416 µM | > 2.5 µM
CC(=O)N(O)CCCCCNC(=O)CCC(=O)N(O)CCCCCNC(=O)CCC(=O)N(O)CCCCCN [Deferoxamine] | 1.97 µM | 1.48 µM | 1.07 µM | 3.24 µM
CCS(=O)(=O)N1CC(CC#N)(n2cc(-c3ncnc4[nH]ccc34)cn2)C1 [Baricitinib] | > 2.5 µM | > 2.5 µM | > 2.5 µM | > 2.5 µM
S=C(NCc1ccc2c(c1)OCO2)N1CCN(c2ncnc3c2oc2ccccc23)CC1 [Amuvatinib] | 3.54 µM | 1.01 µM | 2.07 µM | > 10 µM
CC(C)(O)CC(=O)NCCn1ccc2ncnc(Nc3ccc(Oc4cccc(C(F)(F)F)c4)c(Cl)c3)c21 [TAK-285] | > 2.5 µM | > 2.5 µM | > 2.5 µM | > 2.5 µM
CCCC(CCC)C(=O)O [Valproic acid] | 306 µM | > 1000 µM | > 1000 µM | > 1000 µM
CC(C)NC(=O)COc1cccc(-c2nc(Nc3ccc4[nH]ncc4c3)c3ccccc3n2)c1 [SLx-2119] | 0.193 µM | 1.04 µM | 0.653 µM | > 5 µM
CNC(=O)c1ccc(C)c(-n2c(C)cc(OCc3ccc(F)cc3F)c(Br)c2=O)c1 | 0.0446 µM | > 1 µM | > 1 µM | > 1 µM
Cn1cc(-c2cnn3c(N)c(Br)c([C@@H]4CCCNC4)nc23)cn1 [MK-8776] | 0.362 µM | > 2.5 µM | 0.36 µM | > 2.5 µM
C[C@@H]1COC(Nc2ccc3ncnc(Nc4ccc(OCc5nccs5)c(Cl)c4)c3c2)=N1 [Varlitinib] | 0.247 µM | 0.821 µM | 1.64 µM | > 10 µM
CCN(CC)C(=S)SSC(=S)N(CC)CC [Disulfiram] | 0.303 µM | 0.291 µM | 0.6 µM | 6.65 µM
